From patent US20180244653A1, “SELECTIVE ALPHA-7 NICOTINIC RECEPTOR AGONISTS AND METHODS FOR MAKING AND USING THEM” (THE REGENTS OF THE UNIVERSITY OF CALIFORNIA, priority 2015, published 2018)
Entries after “also recorded” stand apart in the source; their conditions may differ. Like-named read-outs stand apart in the source and are kept apart here.

What was measured:
α4β2-nAChRs = target: T1, α4β2-nAChRs (Homo sapiens, UniProt P17787+P43681); assay: Intact cell competitive radioligand binding assay ([3H]-(±)-epibatidine, SPA), LGIC-CNiFERs
T1 construct: expressed in transfected cells; host or cells: HEKtsA201 cells co-expressing TN-XXL

[1] = tested on: scopolamine-induced amnesic mice; assay: Modified Y-maze test; type: in vivo; settings: for Unfamiliar arm exploration / cognitive deficit, modified Y-maze vs scopolamine-treated group: i.p. 1 h before, scopolamine 1 mg/kg, doses as in the sentence; for Fold lower effective dose than PNU-282987, modified Y-maze: mouse, in vivo; for Minimum effective dose, Modified Y-maze: scopolamine induced amnesia model, ICR mice, i.p.
Method: The modified Y-maze test was performed to evaluate spatial working memory. The experiment was divided into 3 sessions; (i) IND8 at 5, 10, and 50 μmol/kg or 1.5, 2.9, and 14.7 mg/kg doses, (ii) QND8 at 5, 10, and 50 μmol/kg or 1.4, 2.7, 13.5 mg/kg doses, and (iii) IND8 and QND8 at dose of 25 μmol/kg or 7.3 and 6.8 mg/kg, respectively and PNU-282987 at […] or 3, 10 mg/kg doses.
FIG. 21 illustrates the percentage of unfamiliar arm exploration in modified Y-maze of IND8 (FIG. 21A), QND8 (FIG. 21B), and IND8, QND8, PNU-282987 (FIG. 21C). IND8, QND8, PNU-282987, vehicle (15% Tween80, SH) and tacrine (TC) were injected 1 h and scopolamine (SC) 30 min before sample phase, respectively. Each mouse was placed at the end of one arm and allowed to access 2 arms of Y-maze for 5 min in sample phase. After a 30 min period, the mouse was allowed to explore 3 arms for 5 min. The number of entries for each arm was recorded and the percentage of unfamiliar arm exploration was calculated. Data represented in means±standard errors (SE).
Male ICR mice (6-weeks of age) were housed in 5 per cage with free access to food and tap water under 12 h light and dark cycle (light on 6:00 to 18:00) in a temperature and humidity controlled room. They were acclimated in a laboratory at least 7 days prior to starting experiments. The experimental protocols were approved by the Animal Care and Use Committee of KhonKaen University, Thailand.
Tacrine hydrochloride (Sigma-Aldrich, St. Louis, Mo.), PNU-282987 hydrochloride (Alamone, Jerusalem, Israel) and test compounds were prepared as suspensions by using 15% tween 80 in distilled water as a vehicle, whereas scopolamine hydrochloride (Sigma-Aldrich, St. Louis, Mo.) and methyllycaconitine citrate (MLA) (Abcam, Cambridge, England) were prepared as a solution by dissolving with 0.9% normal saline solution (NSS). All compounds were administered by intraperitoneal (i.p.) injection in the amount of 5 mL/kg. Test compounds were injected 1 h and scopolamine was administered 30 min before the experiments, whereas MLA was injected 5 min before the test compounds.
Amnesia was induced pharmacologically in mice via scopolamine injection (single dose) for 30 min prior to start the experiments. They were divided into vehicle group: receiving 15% tween 80 and 0.9% NSS, amnesia group: receiving scopolamine 1 mg/kg, standard positive control group receiving tacrine 1 mg/kg, and test group: receiving IND8, QND8 at dose 5, 10, 25, 50 μmol/kg, or PNU-282987 3, 10 mg/kg, single dose. All mice were acclimated in an experimental room at least 30 min before the experiments.
The maze in this experiment is the same apparatus using in locomotor activity test except there is the black partition to close one of three arms. The mice were randomly separated into different treatment groups. They were injected with test compounds and scopolamine at 1 h and 30 min, respectively, before the sample phase. In this phase which one arm of Y-maze was closed by the black partition, each mouse was placed at the end of one arm and allowed to move through 2 arms for 5 min to get familiar with the two opened arms. After 30 min of resting, all arms were opened and the mouse was allowed to move freely through all 3 arms. The maze area and the partition were cleaned with 70% ethanol between each experiment to remove olfactory cues. The number of entries in each arm was counted visually if mice accessed into each arm at least 10 cm. The percentage of unfamiliar arm exploration was calculated as following equation: […]

[2] = tested on: physiologically induced amnesia mice; assay: ORT with 24 h time delay (natural memory loss); type: in vivo; settings: i.p.; for Discrimination index / cognition enhancement, ORT time delay vs control group: 24 h delay; for Minimum effective dose, RT^§: physiologically induced amnesia (memory retention) model, ICR mice
Method: Both compounds were further evaluated on a physiologic amnesic model by using ORT with 24 h time delay to induce natural memory loss in mice. The appropriate time delay causing amnesia was initially selected by varying delay times (24, 48, and 72 h) between sample and test phase that have identical and different objects, respectively. […] Therefore, 24 h was used as the time delay between sample and test phase.
FIG. 27 illustrates exploration time to familiar (F) and novel (N) objects in test phase of ORT following a time delay. Each mouse was allowed to explore an open field apparatus for 5 min in a habituation phase one day before a sample phase. In the test day, vehicle (SH) and test compounds IND8, QND8 and PNU were injected 1 h before measurement of exploration time. Each mouse was allowed to explore 2 identical objects in the sample phase for 5 min. On the next day (24 h), one of the objects was changed to a new one and the mouse was allowed to explore these objects for 5 min. The exploration time of these objects was recorded. Data are presented as means±SE, n=6-8 mice/group. **p<0.01, ***p<0.001 vs exploration time of familiar object, paired student's t-test.
The DI was calculated and compared with the control group to evaluate IND8, QND8, and PNU-282987 enhancement of cognitive function. Data are shown in FIG. 28, which illustrates discrimination index (TN−TF/TN+TF) of each compound in the test phase of ORT with time delay protocol. There was a significant difference in DI (F6,43=6.097, p<0.001, n=6-8 mice/group). **p<0.01, ***p<0.001 vs vehicle group (SH), one-way ANOVA with Fisher's LSD post hoc comparison.
The apparatus used in this experiment was the same as ORT test. This experiment was divided into 2 parts directed to dose finding and establishing mechanism of action.
For dose finding protocol, the mice were randomly divided into different treatment groups, a control group receiving a vehicle and tested groups receiving PNU-282987 at 3, 10 mg/kg, and IND8, QND8 for 10, 25 μmol/kg, single dose. They were allowed to freely explore the open field apparatus for 5 min for habituation in a day before the experiment (day 1). On the test day (day 2), the test compound was injected 1 h before the sample phase. In this phase, mice were placed in the apparatus to explore two identical objects. On the next day (day 3), one object was changed to a new one and mice were allowed to explore these objects for 5 min in the test phase. For proving cognitive enhancement mediated through α7-nAChRs, the protocol was the same as mentioned above except MLA (3 mg/kg), selective α7-nAChR antagonist, was injected 5 min before test compounds in the sample phase (day 2) to block the cognitive enhancement effect from test compounds. The dose of test compounds is selected from the effective dose from the former experiment. The exploration time of each object was recorded if the nose of mouse came within 3 cm or touched the objects. The discrimination index (DI) was calculated by using (TN−TF)/(TN+TF); TN and TF represented exploration time of new and familiar objects, respectively.

[3] = >10 = did not pass initial screen at 10 μM, read-out: Kd ± SD, α4β2

## c1cc2cc(-c3cn(C4CN5CCC4CC5)nn3)ccc2[nH]1 (centres unmarked) [IND8, 5-((Quinuclid-3-yl)-1H-1,2,3-triazol-4-yl)-1H-indole]
α4β2-nAChRs; 10 μM, more than 50% radioligand displacement
  Initial screening for binding to α4β2-nAChRs: binds to α4β2-nAChRs
α4β2-nAChRs; [3]
  Kd: 0.75 µM
[1]
  Unfamiliar arm exploration / cognitive deficit, modified Y-maze vs scopolamine-treated group: reversed the cognitive deficit induced by scopolamine
  Fold lower effective dose than PNU-282987, modified Y-maze: seven-fold
  Minimum effective dose, Modified Y-maze: 5 µmol/kg
[2]
  Discrimination index / cognition enhancement, ORT time delay vs control group: able to enhance cognition; also recorded: significantly higher than that of control group
  Minimum effective dose, RT^§: 10 µmol/kg

## O=C(N[C@H]1CN2CCC1CC2)c1ccc(Cl)cc1 [PNU-282987, reference compound]
α4β2-nAChRs
  Kd: > 10 µM
[1]
  Minimum effective dose, Modified Y-maze: 33 µmol/kg
[2]
  Discrimination index / cognition enhancement, ORT time delay vs control group: able to enhance cognition; also recorded: significantly higher than that of control group
  Minimum effective dose, RT^§: 10 µmol/kg

## Oc1ccc(-c2cn(C3CN4CCC3CC4)nn2)cc1 (centres unmarked) [QND8, 3-(4-hydroxyphenyl-1,2,3-triazol-1-yl) quinuclidine]
α4β2-nAChRs; [3]
  Kd: > 10 µM
[1]
  Unfamiliar arm exploration / cognitive deficit, modified Y-maze vs scopolamine-treated group: improved the cognitive deficit significantly only at the 2.7 mg/kg dose
  Fold lower effective dose than PNU-282987, modified Y-maze: four-fold
  Minimum effective dose, Modified Y-maze: 10 µmol/kg
[2]
  Discrimination index / cognition enhancement, ORT time delay vs control group: able to enhance cognition; also recorded: significantly higher than that of control group
  Minimum effective dose, RT^§: 10 µmol/kg
